Measured values reported in patent US20160130278A1 (TAISHO PHARMACEUTICAL CO., LTD, priority 2013, published 2016).

The molecules below were run against T1, human type 1 glycine transporter (GlyT1) (Homo sapiens, UniProt P48067) (assay: Glycine uptake inhibition experiment ([3H]glycine uptake)). Details: GlyT1.
T1 construct: T98G cells (glioma cells) expressing human type 1 glycine transporter (GlyT1) were used
T1 sequence (P48067 1-706): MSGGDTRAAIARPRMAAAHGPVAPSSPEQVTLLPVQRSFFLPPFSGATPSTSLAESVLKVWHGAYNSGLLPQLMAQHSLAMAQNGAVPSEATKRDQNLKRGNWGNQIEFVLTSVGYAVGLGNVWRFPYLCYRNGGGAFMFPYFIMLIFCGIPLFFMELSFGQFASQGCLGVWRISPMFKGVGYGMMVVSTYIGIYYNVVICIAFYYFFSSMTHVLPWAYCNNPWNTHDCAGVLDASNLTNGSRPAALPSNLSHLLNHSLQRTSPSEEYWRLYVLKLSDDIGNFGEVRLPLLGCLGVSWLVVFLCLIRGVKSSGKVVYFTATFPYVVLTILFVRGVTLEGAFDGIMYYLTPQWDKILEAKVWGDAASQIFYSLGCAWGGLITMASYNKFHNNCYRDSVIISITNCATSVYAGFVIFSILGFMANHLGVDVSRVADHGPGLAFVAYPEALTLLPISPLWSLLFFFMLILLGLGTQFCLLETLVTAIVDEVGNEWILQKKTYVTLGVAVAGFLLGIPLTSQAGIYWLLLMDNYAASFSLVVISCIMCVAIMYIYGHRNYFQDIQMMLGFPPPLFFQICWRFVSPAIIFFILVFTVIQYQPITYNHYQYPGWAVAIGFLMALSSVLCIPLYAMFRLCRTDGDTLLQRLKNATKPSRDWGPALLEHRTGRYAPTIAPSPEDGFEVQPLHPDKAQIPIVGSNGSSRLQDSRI
Type: cell-based
Procedure, shortened: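 T98G glioma cells expressing human GlyT1 were pretreated 10 min with compound in HEPES buffer pH 7.4 (0.2% BSA), then incubated with compound plus 250 nM final [3H]glycine for 15 min at room temperature. Intracellular radioactivity was counted after NaOH lysis; 10 μM ALX5407 defined non-specific uptake. IC50 came from 10^−9–10^−5 M curves.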

Q: With `O=C(NC(c1cccc(Br)c1)C1(O)CCC(F)(F)CC1)c1nccc(C(F)(F)F)c1Cl` (single isomer, unassigned) [Compound 89, N-[(3-bromophenyl)(4,4-difluoro-1-hydroxycyclohexyl)methyl]-3-chloro-4-(trifluoromethyl)pyridine-2-carboxamide] as the molecule, how does the IC50 read?
A: The IC50 was 1.1 µM.

Q: For `O=C(NC(c1ccc(F)c(F)c1F)C1(O)CCC(F)(F)CC1)c1ccnc(C(F)(F)F)c1Cl` (stereo not shown) [Compound 171, 3-chloro-N-[(4,4-difluoro-1-hydroxycyclohexyl)(2,3,4-trifluorophenyl)methyl]-2-(trifluoromethyl)pyridine-4-carboxamide], which IC50 is on record?
A: The IC50 was 1.1 µM.

Q: For `O=C(NC(c1cc(Cl)ccn1)C1(O)CCC(F)(F)CC1)c1cccc(C(F)(F)F)c1Cl` (single isomer, unassigned) [Compound 351, 2-chloro-N-[(4-chloropyridin-2-yl)(4,4-difluoro-1-hydroxycyclohexyl)methyl]-3-(trifluoromethyl)benzamide], which IC50 is on record?
A: Its IC50 is 0.15 µM.

Q: How did the IC50 turn out when `O=C(NC(c1cccc(Cl)c1Cl)C1(O)CCCC1)c1nccc(C(F)(F)F)c1Cl` (stereo not shown) [Compound 107, 3-chloro-N-[(2,3-dichlorophenyl)(1-hydroxycyclopentyl)methyl]-4-(trifluoromethyl)pyridine-2-carboxamide] was run?
A: Its IC50 is 0.039 µM.

Q: `CCn1cc(-c2cccc(C(NC(=O)c3c(Cl)cccc3Cl)C3(O)CCC(F)(F)CC3)c2)cn1` (stereo not shown) [Compound 174, 2,6-dichloro-N-{(4,4-difluoro-1-hydroxycyclohexyl)[3-(1-ethyl-1H-pyrazol-4-yl)phenyl]methyl}benzamide] was tested. Which IC50 did it give?
A: The IC50 was 1.1 µM.

Q: How did the IC50 turn out when `O=C(NC(c1cccc(F)c1)C1(O)CCCC1)c1cccc(C(F)(F)F)c1Cl` (stereo not shown) [Compound 65, 2-chloro-N-[(3-fluorophenyl)(1-hydroxycyclopentyl)methyl]-3-(trifluoromethyl)benzamide] was run?
A: Its IC50 is 0.27 µM.

Q: How did the IC50 turn out when `CCn1cc(-c2cccc(C(NC(=O)c3nccc(C(F)(F)F)c3Cl)C3(O)CCC(F)(F)CC3)c2)cn1` (single isomer, unassigned) [Compound 91, 3-chloro-N-{(4,4-difluoro-1-hydroxycyclohexyl)[3-(1-ethyl-1H-pyrazol-4-yl)phenyl]methyl}-4-(trifluoromethyl)pyridine-2-carboxamide] was run?
A: The IC50 was 3.8 µM.

Q: With `O=C(NC(c1cccnc1Cl)[C@]1(O)CC[C@@H](F)CC1)c1nccc(C(F)(F)F)c1Cl` (single isomer, unassigned) [Compound 273, 3-chloro-N-[(2-chloropyridin-3-yl)(cis-4-fluoro-1-hydroxycyclohexyl)methyl]-4-(trifluoromethyl)pyridine-2-carboxamide] as the molecule, how does the IC50 read?
A: The IC50 was 0.33 µM.

Q: With `O=C(NC(c1ccccc1Cl)[C@]1(O)CC[C@@H](F)CC1)c1ccc(C(F)(F)F)nc1Cl` (single isomer, unassigned) [Compound 368, 2-chloro-N-[(2-chlorophenyl)(cis-4-fluoro-1-hydroxycyclohexyl)methyl]-6-(trifluoromethyl)pyridine-3-carboxamide] as the molecule, how does the IC50 read?
A: The IC50 was 0.76 µM.

Q: Which IC50 does the source give for `O=C(NC(c1ccccc1)C1(O)CCCC1)c1cccc(C(F)(F)F)c1Cl` (stereo not shown) [Compound 11, 2-chloro-N-[(1-hydroxycyclopentyl)(phenyl)methyl]-3-(trifluoromethyl)benzamide] here?
A: The IC50 was 1 µM.

Q: For `Cc1cccc(C(=O)NC(c2cccc(F)c2Cl)[C@]2(O)CC[C@@H](F)CC2)c1Cl` (single isomer, unassigned) [Compound 287, 2-chloro-N-[(2-chloro-3-fluorophenyl)(cis-4-fluoro-1-hydroxycyclohexyl)methyl]-3-methylbenzamide], which IC50 is on record?
A: The IC50 was 0.96 µM.

Q: With `O=C(NC(c1ncccc1Cl)[C@]1(O)CC[C@@H](F)CC1)c1nccc(C(F)(F)F)c1Cl` (single isomer, unassigned) [Compound 361, 3-chloro-N-[(3-chloropyridin-2-yl)(cis-4-fluoro-1-hydroxycyclohexyl)methyl]-4-(trifluoromethyl)pyridine-2-carboxamide] as the molecule, how does the IC50 read?
A: The IC50 was 0.3 µM.

Q: How did the IC50 turn out when `O=C(NC(c1cccc(-n2cccn2)c1)C1(O)CCCC1)c1nccc(C(F)(F)F)c1Cl` (single isomer, unassigned) [Compound 83, 3-chloro-N-{(1-hydroxycyclopentyl)[3-(1H-pyrazol-1-yl)phenyl]methyl}-4-(trifluoromethyl)pyridine-2-carboxamide] was run?
A: Its IC50 is 3.9 µM.

Q: Which IC50 does the source give for `O=C(NC(c1ccc(F)c(Cl)c1)[C@]1(O)CC[C@@H](F)CC1)c1nccc(C(F)(F)F)c1Cl` (single isomer, unassigned) [Compound 225, 3-chloro-N-[(3-chloro-4-fluorophenyl)(cis-4-fluoro-1-hydroxycyclohexyl)methyl]-4-(trifluoromethyl)pyridine-2-carboxamide] here?
A: The IC50 was 0.39 µM.

Q: For `CCn1cc(-c2cccc(C(NC(=O)c3ccnc(Cl)c3Cl)C3(O)CCC(F)(F)CC3)c2)cn1` (stereo not shown) [Compound 173, 2,3-dichloro-N-{(4,4-difluoro-1-hydroxycyclohexyl)[3-(1-ethyl-1H-pyrazol-4-yl)phenyl]methyl}pyridine-4-carboxamide], which IC50 is on record?
A: Its IC50 is 1 µM.

Q: For `O=C(NC(c1cccc(Cl)c1Cl)C1(O)CCC(F)(F)CC1)c1nccc(C(F)(F)F)c1Cl` (stereo not shown) [Compound 131, 3-chloro-N-[(2,3-dichlorophenyl)(4,4-difluoro-1-hydroxycyclohexyl)methyl]-4-(trifluoromethyl)pyridine-2-carboxamide], which IC50 is on record?
A: The IC50 was 0.16 µM.

Q: `O=C(NC(c1cccc(F)c1)C1(O)CCCC1)c1nccc(C(F)(F)F)c1Cl` (single isomer, unassigned) [Compound 53, 3-chloro-N-[(3-fluorophenyl)(1-hydroxycyclopentyl)methyl]-4-(trifluoromethyl)pyridine-2-carboxamide] was tested. Which IC50 did it give?
A: Its IC50 is 1.5 µM.

Q: For `O=C(NC(c1cc(Cl)ccc1Cl)C1(O)CCC(F)(F)CC1)c1nccc(C(F)(F)F)c1Cl` (single isomer, unassigned) [Compound 234, 3-chloro-N-[(2,5-dichlorophenyl)(4,4-difluoro-1-hydroxycyclohexyl)methyl]-4-(trifluoromethyl)pyridine-2-carboxamide], which IC50 is on record?
A: The IC50 was 0.28 µM.

Q: `CCn1cc(-c2cccc(C(NC(=O)c3nccc(C(F)(F)F)c3Cl)C3(O)CCCC3)c2)cn1` (stereo not shown) [Compound 10, 3-chloro-N-{[3-(1-ethyl-1H-pyrazol-4-yl)phenyl](1-hydroxycyclopentyl)methyl}-4-(trifluoromethyl)pyridine-2-carboxamide] was tested. Which IC50 did it give?
A: The IC50 was 0.013 µM.

Q: For `O=C(NC(c1cc(Cl)ccn1)[C@]1(O)CC[C@@H](F)CC1)c1nccc(C(F)F)c1Cl` (single isomer, unassigned) [Compound 332, 3-chloro-N-[(4-chloropyridin-2-yl)(cis-4-fluoro-1-hydroxycyclohexyl)methyl]-4-(difluoromethyl)pyridine-2-carboxamide], which IC50 is on record?
A: The IC50 was 1.4 µM.

Q: `CCn1cc(-c2cccc(C(NC(=O)c3cccc(C)c3Cl)C3(O)CCC(F)(F)CC3)c2)cn1` (single isomer, unassigned) [Compound 152, 2-chloro-N-{(4,4-difluoro-1-hydroxycyclohexyl)[3-(1-ethyl-1H-pyrazol-4-yl)phenyl]methyl}-3-methylbenzamide] was tested. Which IC50 did it give?
A: Its IC50 is 1.3 µM.

Same assay, conditions: human GlyT1

Q: Which IC50 does the source give for `CS(=O)(=O)c1cc(C(F)(F)F)ccc1C(=O)NC(c1ccccc1Cl)C1(O)CCC(F)(F)CC1` (single isomer, unassigned) [Compound 405, N-[(2-chlorophenyl)(4,4-difluoro-1-hydroxycyclohexyl)methyl]-2-(methylsulfonyl)-4-(trifluoromethyl)benzamide] here?
A: Its IC50 is 0.2 µM.
